Experimental data reported in patent publication EP0497921B1, “METHOD FOR INHIBITING ENZYMATIC SYNTHESIS OF NUCLEIC ACIDS USING ISOPSORALENS” (ISAACS, Stephen T., priority 1989, dated 1991).

Columns and labels:
calf thymus DNA = test: Binding of photoproduct to nucleic acid in the dark (DNA-associated tritium counts); conditions: no device, no irradiation
Experimental: The nucleic acid binding properties of photoproduct were investigated with calf thymus DNA. 200 µg/ml of ^3H-AMDMIP (1 x 10^5 CPM/ml) in Taq buffer was irradiated at room temperature with either the CE-III device or the PTI device. This irradiation was performed for 15 minutes in the absence of nucleic acid. Following the irradiations, 200 µl of the irradiated solution was mixed with 200 µl of 1000 µg/ml DNA solution in Taq buffer. Several identical samples were prepared in this manner. one set of samples was allowed to react with the DNA for 2 hours at room temperature. The other set of samples was subjected to 30 cycles of heating and cooling by placing the samples in a thermal cycler [Perkin-Elmer Cetus DNA Thermal Cycler (Part No. N8010150); each cycle involved 93°C for 30 seconds, 55°C for 30 seconds and 72°C for 1 minute]. When the DNA reactions were complete, all samples were analyzed for DNA-associated tritium counts (CPM) by following the flow chart outlined in FIgure 17.
For calculation purposes, these adducts are reported as if they represented monomers of AMDMIP. Regardless of the accuracy of this approximation, the process of irradiating ^3H-AMDMIP clearly results in a tritiated product which associates (i.e. binds) with DNA in the absence of subsequent activating wavelengths of electromagnetic radiation. […]

HIV 115-mer = test: Post-amplification sterilization: isopsoralen plus irradiation, reamplification of carryover; assay type: biochemical; conditions: for sterilization sensitivity (molecules of carryover sterilized): 115-mer PCR product; for amplification of carryover, not light-treated: no irradiation
Description: For the purposes of this determination, the steps of the following experiment include (see Figure 40): a) preparing template, b) providing template, c) providing PCR reagents, d) providing polymerase, e) mixing PCR reagents, template, and polymerase to initiate PCR, f) cycling to provide PCR product, g) carrying over of PCR product into new tubes, h) providing isopsoralen, i) adding isopsoralen to the carryover, j) irradiating, k) addition of new PCR reagents, and l) subsequent PCR. Steps a), b) , c) , d), e), and f). PCR product was provided as described earlier. Step g) carrying over of PCR product. Aliquots of PCR product were added into new reaction tubes at 10^6 copies per tube. Step h) Providing Isopsoralen. AMDMIP was synthesized as described and diluted. Step i) Addition of Isopsoralen. AMDMIP (100 µg/ml, approximately 10^-4 M) was added reaction vessels containing carryover. Step j) Irradiation. Irradiation was performed on the PTI device to avoid photoproduct. Three of the new reaction tubes were irradiated while the others were left unirradiated as controls. Irradiation was for 15 minutes at RT as above. Step k) PCR Reagents and Taq Polymerase Were Added to Appropriate Concentrations. The final volume was increased two fold such that AMDMIP photoproducts were at 50 µg/ml. Step l) Subsequent PCR. Amplification was performed in closed reaction vessels using primer pair SK-38/39 for 20, 25 or 30 cycles, using the temperature profile for cycling described above in the presence of α-^32P-dCTP.
For the purposes of this determination, the steps of the following experiment include (see Figure 42): a) preparing template, b) providing template, c) providing isopsoralen, d) providing PCR reagents, e) providing polymerase, f) mixing isopsoralen, PCR reagents, template, and polymerase to initiate PCR, g) cycling to provide PCR product, h) irradiating, i) carrying over of PCR product into new tubes at specific copy numbers, and j) amplifying in a subsequent PCR. Step a): Template preparation. HIV 115-mer was used as template. Step b) Providing Template. For the reaction, template (equivalent to approximately 10^7 copies) in buffer was provided for the reaction vessel. Step c) Providing Isopsoralen. AMDMIP (400 µg/ml) was provided as the isopsoralen. This is a higher concentration of AMDMIP than used in the previous example. Steps d), e), f) and g). PCR reagents and polymerase were provided, mixed and cycled as described above. This time, however, isopsoralen is part of the pre-amplification mixture. Step h) Irradiation. Irradiation was performed on the CE-III device for 15 minutes at 25°C. Step i) Carrying over of PCR product. Aliquots of PCR product were added into six new reaction tubes - two tubes for each dilution. Dilutions to yield 10^7, 10^5 and 10^3 copies were made. (Note that the dilutions were made from a concentration of approximately […]; thus, the dilutions produce a concentration of photoproduct that is far too low to consider photoproduct sterilization.) Step j) Subsequent PCR. New PCR reagents and polymerase were provided and mixed. Amplification was performed in closed reaction vessels using primer pair SK-38/39 for 30 cycles, using the temperature profile for cycling described above in the presence of α-^32P-dCTP.
The two PCR targets used in these experiments were a 115-mer (SK-38/SK-39 HIV system) and a 500-mer. The 500-mer target is obtained from a PCR amplification of a lambda plasmid with primers PCR 01/02. This system is provided by Cetus/Perkin Elmer as a control in their commercial kits of PCR reagents (Catalogue No. N801-0055). For both of these systems equivalent copy numbers of each target were prepared in the following manner: An initial 30 cycle PCR reaction was carried out for each system with the appropriate primers and targets. Aliquots (approximately 10^5-10^6 target copies) of each of these reactions were transferred to a second set of PCR reactions. […]

DNA = DNA base pair:isopsoralen ratio of 24.3 to 1; 13.1 µg/ml; cited from earlier work
[1] = 100 µg/ml, CE-III 15 minutes, 30 cycles
[2] = 400 µg/ml, CE-III 15 minutes, 30 cycles

Substance	ADDUCTS PER (calf thymus DNA; dark reaction Room Temp. (2 hours))	ADDUCTS PER (calf thymus DNA; dark reaction Thermally Cycled (30 cycles))	sterilization of 115-mer PCR product compared with AMIP (HIV 115-mer; [1])	sterilization sensitivity (molecules of carryover sterilized) (HIV 115-mer; [2])	sterilization of carryover (HIV 115-mer; AMDMIP 100 µg/ml added after amplification, PTI 15 minutes, 10^6 copies, thirty cycles)	sterilization of carryover (HIV 115-mer; AMDMIP 100 µg/ml added after amplification, PTI 15 minutes, 10^6 copies, twenty cycles)	sterilization of carryover (HIV 115-mer; AMDMIP 100 µg/ml added after amplification, PTI 15 minutes, 10^6 copies, twenty-five cycles, reduced relative to controls)	amplification of carryover, not light-treated (HIV 115-mer; AMDMIP 100 µg/ml, 20, 25, 30 cycles)	sterilization of carryover (HIV 115-mer; AMDMIP 400 µg/ml present during amplification, CE-III 15 minutes at 25°C, 10^7, 10^5, 10^3 copies, 30 cycles)	amplification of carryover, not light-treated (HIV 115-mer; AMDMIP 400 µg/ml present during first amplification, 30 cycles)	target molecules left capable of being replicated by PCR (HIV 115-mer; inferred from 20 cycles with 100 CPM threshold and Table 6)	target molecules that retained replicating capabilities (HIV 115-mer; inferred from 25 cycles and Table 6)	1 photobound AMDMIP per n DNA base pairs (DNA) [DNA base pairs]	sterilization sensitivity (molecules of carryover sterilized) (HIV 115-mer; [1])
4'-Aminomethyl-4,5'-dimethylisopsoralen [AMDMIP]	1.1	0.9	better sterilization agent	≥ 6 x 10^9 carryover molecules	no significant sterilization is observed	sterilization appears to be complete	PCR product is visible	show amplification	complete, post-amplification sterilization	show amplification	less than 10^4 target molecules	at least 10^3 target molecules	151	
5-Aminomethylisopsoralen [AMIP]				about 10^6 carryover molecules										about 10,000 molecules of carryover
